The text below walks through data of ChEMBL document CHEMBL1157539, “Thousands of chemical starting points for antimalarial lead identification” (Nature, 2010).

In this experiment the test system is Plasmodium falciparum. In words: GSK_TCMDC: Inhibition of Plasmodium falciparum 3D7 in whole erythrocytes, using parasite LDH activity as an index of growth. The format is functional, organism-based. As to conditions: Plasmodium falciparum, 3D7.
Take `O=C(/C=C/c1ccc(Cl)c(Cl)c1)NCCCCCN1CCCN(C(=O)Nc2ccc(Cl)c(C(F)(F)F)c2)CC1`: the XC50 was 730 nM.
In turn, `NCCCNc1ccnc2cc(Cl)ccc12` registered an XC50 of 305 nM.
The compound `COc1ccc(NC(=O)C2c3ccccc3C(=O)N(CC(C)C)C2c2cccs2)cc1OC` (centres undefined) returned an XC50 of 203 nM.
For the compound `O=C(/C=C/c1ccc(Cl)c(Cl)c1)N1CCC(CN2CCC(c3c[nH]c4ccncc34)CC2)CC1`, the XC50 worked out at 733 nM.
Regarding `Cc1ccc(NC(=O)c2ccc3ncccc3c2)cc1OC1CCN(CCC(C)C)C1` (centres undefined), the XC50 is 351 nM.
As to `COc1cc(CCNC(=O)Cc2ccc3ccccc3c2)ccc1OCc1ccccc1`, the XC50 was determined as 1020 nM.
To `CN(CCN(C)C(=O)NCc1ccccc1)C(=O)NCc1ccccc1` belongs 930 nM; to `Cc1ccc(-c2cc(C(=O)Nc3ccc(S(=O)(=O)N4CCCCC4)cc3)[nH]n2)c(O)c1`, 1770 nM.
`Fc1cc(Cl)ccc1Nc1ccnc2cc(-c3scnc3CNCCN3CCOCC3)ccc12` showed an XC50 of 848 nM.
To `COc1ccc(CC(=O)NC(CCCN2CCC(c3ccccc3)CC2)c2ccc(Cl)c(Cl)c2)cc1OC` (centres undefined) belongs 1050 nM.
To `O=S(=O)(Nc1ccc(CCN2CCC(N3CCCCC3)CC2)cc1)c1ccccc1C(F)(F)F` belongs 1020 nM; to `COc1ccc(C2SCC(=O)N2CCc2ccc(OC)c(OC)c2)cc1` (centres undefined), 306 nM.
To `CCOC(=O)NC1=NC(C)(C)N(OCCCOc2ccc(C)cc2C)C(NC(=O)OCC)=N1` belongs 126 nM; to `Cc1cccc2[nH]c(-c3cc(-c4cn[nH]c4)cnc3N)nc12`, 221 nM; to `Cc1ccn2cc(-c3ccc(NC(=O)c4ccc(Br)o4)cc3)nc2c1`, 741 nM.
Turning to `Oc1cc2c(cc1CN1CCN(Cc3ccccc3F)CC1)CCC2`, the XC50 was 761 nM.
To `O=C(NC1CCC(CN2CCC(c3c[nH]c4ccccc34)CC2)CC1)c1csc(-c2cccc(Cl)c2Cl)n1` (centres undefined) belongs 1730 nM; to `CC1CCN(c2nc(C(=O)Nc3cccc4c3CCCC4)c(C(C)C)s2)CC1`, 1040 nM; to `Cc1[nH]c(C)c(-c2ccc(-c3cc(C(F)(F)F)cc(C(F)(F)F)c3)nc2)c(=O)c1Br`, 81.4 nM.
`CCOc1cc(C=NNc2nc(C)cc(-n3nc(C)cc3C)n2)ccc1O` yielded an XC50 of 1080 nM.
To `CN(C)CCNC(=O)c1ccc2c(c1)ncn2-c1cc(OCc2ccccc2C(F)(F)F)c(C(N)=O)s1.CN(C)CCNC(=O)c1ccc2ncn(-c3cc(OCc4ccccc4C(F)(F)F)c(C(N)=O)s3)c2c1` belongs 809 nM; to `COc1ccc(C=NN=c2cc(C)[nH]c3ccccc23)c2ccccc12`, 752 nM; to `Cc1cccc2nc(-c3ccc(-c4ccc(C(=O)NCCN5CCCC5)cc4)cc3)[nH]c12`, 519 nM.
Compound `Cn1nc(-c2cccc(CNC3CCc4ccccc43)c2)c2cnc(NCCCN3CCCC3)nc21` (centres undefined) yielded an XC50 of 877 nM.
Take `COc1ccccc1Nc1nc(C)cc(NCc2ccc(-c3c(C)noc3C)cc2)n1`: the XC50 stood at 872 nM.
Compound `C[C@@H](NC(=O)NC(CCN1CCC2(CC1)CN(S(C)(=O)=O)c1ccccc12)c1ccc(Cl)c(Cl)c1)c1ccccc1` (some centres undefined) registered an XC50 of 903 nM.
Regarding `Nc1c(Cl)cc(C(O)CNCCCCCCCCCc2ccccn2)cc1Cl` (centres undefined), the XC50 turned out to be 863 nM.
The value for `COc1ccc(C(=O)CC(=O)c2ccc(OC)cc2OC)c(OC)c1` was 300 nM.
As for `Cc1ccc(Nc2ccnc3cc(-c4nccs4)ccc23)cc1C(O)c1ccccc1` (centres undefined), the XC50 is 735 nM.
For the compound `O=C(Nc1ccc2ccccc2n1)c1ccccc1-c1ccccc1`, the XC50 was found to be 438 nM.
The value for `COc1ccc2nccc(NC(=O)N3CCC(NCCOc4cc(F)cc(F)c4)CC3)c2n1` was 770 nM.
With `O=C(Cn1cc(C=C2SC(=NC3CCCC3)N(C3CCCC3)C2=O)c2ccccc21)N1CCCC1`, the XC50 amounted to 297 nM.
Compound `CCC(C)NS(=O)(=O)c1ccc2nc(Nc3ccc(C)c(Cl)c3)n(C(C)C(C)C)c2c1` (centres undefined) registered an XC50 of 375 nM.
`COc1cccc(Nc2nc(C)cc(NCc3ccc(-n4ccnc4)cc3)n2)c1` had an XC50 of 958 nM.
Compound `COc1ccc(-c2cccc(NC(=O)c3cccc(Cl)c3)c2)cc1CN1CCC(O)CC1` came in with an XC50 of 791 nM.
`CN1CCC(NCc2ccc(-c3ccc(S(=O)(=O)NCc4ccccc4)s3)cc2)CC1` displayed an XC50 of 765 nM.
With `COc1ccc(CNC2Cc3ccccc3C2)cc1-c1ccc(S(=O)(=O)NCCN2CCCC2)c(F)c1`, the XC50 turned out to be 719 nM.
Turning to `CCCC(C)Nc1nc(C)cc(NCCC(=O)Nc2ccc(OC)cc2)n1` (centres undefined), the XC50 was determined as 1380 nM.
The value for `CN(C)C(CNC(=O)c1cc(-c2ccncc2)c(-c2ccc(NC(=O)Nc3ccccc3)cc2)o1)c1ccccc1` (centres undefined) was 603 nM; that for `COc1cccc(Cc2c(C)nc3nc(N)nc(N)c3c2C)c1` was 879 nM.
As to `CS(=O)(=O)CCNCc1ccc(-c2ccc3c(Nc4ccc(Cl)cc4F)ccnc3c2)o1`, the XC50 was found to be 668 nM.
`Cc1cc(NCCC(=O)NCCc2ccccc2)nc(NCCc2ccc(F)cc2)n1`: the XC50 is 1080 nM.
Regarding `C#Cc1cccc(NC(=O)[C@H](CC2CCCCC2)Nc2ccc(C#N)c3ccccc23)c1`, the XC50 stood at 588 nM.
On to `O=C(/C=C/c1ccc(Cl)c(Cl)c1)N1CCC(CCCN2CCC(c3c[nH]c4ccc(O)cc34)CC2)CC1`, for which the XC50 is 694 nM.
The value for `CCOC(=O)c1nc(-c2cccnc2)[nH]c1NC(=S)NCc1ccccc1` was 711 nM; that for `CC1CCCCN1CCCNc1ncc2c(-c3ccc(NC(=O)Nc4cc(C(F)(F)F)ccc4F)c(F)c3)nn(C)c2n1` (centres undefined) was 263 nM; that for `COCCNC(=O)C(CNC(=O)c1ccc2c(c1)OCO2)NC(=O)c1ccc(-c2ccccc2)cc1` (centres undefined) was 974 nM.
`CCOC(=O)c1cc(C(=O)NCCCCN2CCC(c3ccc4c(c3OC)CCCC4)CC2)ccc1-c1ccc(C(F)(F)F)cc1` yielded an XC50 of 707 nM.
The value for `COc1cccc2c(NN=Cc3ccccc3F)ccnc12` was 941 nM.
As for `CCOC(=O)c1ccc(Nc2cc(Nc3ccc(C(=O)OCC)cc3)nc(C)n2)cc1`, the XC50 is 907 nM.
`CC(C)(C)[C@@H](Nc1ccc(C#N)c2ccccc12)C(=O)NC1(Cc2ccc(O)cc2)CCCC1` returned an XC50 of 1440 nM.
Compound `COc1ccccc1N1CCN(Cc2c(O)ccc3cc(Br)ccc23)CC1` gave an XC50 of 1150 nM.
As to `CC(C)Cn1c(Sc2ccc(C#N)c([N+](=O)[O-])c2)nnc1-c1ccccc1Cl`, the XC50 is 901 nM.
To `CCSc1nc2sc3c(c2c(=O)n1-c1ccccc1)CCN(C)C3` belongs 457 nM; to `CC(C)c1ccc(NC(=O)c2ccc(C(=O)NC3CCN(Cc4ccccc4)CC3)cc2)cc1`, 982 nM.
`Cc1cc(N(CCN2CCCCC2)CCN2CCCCC2)nc(Nc2ccc(Cl)cc2)n1` gave an XC50 of 269 nM.
To `CN(C)CC1CCCN1Cc1ccccc1-c1cnn(C)c(=O)c1Oc1ccc(F)cc1` (centres undefined) belongs 1220 nM; to `N=C(N)NC(=O)Nc1ccc([N+](=O)[O-])c(Cl)c1`, 880 nM.
As for `CCOc1ccc(C(=O)Nc2cc(Br)c3c(c2)CNCC3)cc1Br`, the XC50 was determined as 990 nM.
The value for `CC(C)(C)c1ccc(CNC(=O)c2cc(CNC3CCNC3)ccc2O)cc1` (centres undefined) was 805 nM; that for `COCCNCc1ncsc1-c1ccc2c(Nc3cc(O)ccc3C)ccnc2c1` was 705 nM; that for `Cc1cccc2nc(-c3ccc(-c4ccc(CN5CCOCC5)cc4)cc3)[nH]c12` was 818 nM.
Take `Cc1cc(Nc2ccc(C)c(C)c2)n2nc(C)nc2n1`: the XC50 was found to be 599 nM.
`CNCCCCCCOc1ccc(CC(C)NCC(O)c2cccc(C(F)(F)F)c2)cc1` (centres undefined) returned an XC50 of 884 nM.
Compound `CCCNCc1ccc(-c2ccc(CN(CCOC)C(=O)c3cccc(C#N)c3)cc2)nc1` returned an XC50 of 1230 nM.
To `CC1(C)N=C(N)N=C(N)N1c1cccc(I)c1` belongs 126 nM; to `CCC(C(=O)Nc1cc(=O)[nH]c2nc(-c3ccco3)nn12)c1ccccc1` (centres undefined), 844 nM; to `CS(=O)(=O)c1ccc2[nH]c(-c3cc(-c4ccc(OCCN5CCOCC5)cc4)cnc3N)nc2c1`, 1060 nM.
`Cc1cc(NCCC(=O)Nc2ccccc2)nc(NCCOc2ccccc2)n1` yielded an XC50 of 1140 nM.
Turning to `O=C(Nc1cccc(C(F)(F)F)c1)Nc1nc2ccc([N+](=O)[O-])cc2s1`, the XC50 was determined as 687 nM.
The value for `Cc1cccc(-c2cccc3c(NC(=O)N4CCc5cc6nccc(N7CCN8CCC[C@H]8C7)c6cc54)cccc23)n1` was 916 nM; that for `O=C(Nc1cccc(CN2CCCN(CCc3ccccc3)CC2)c1)c1cc2ccccc2s1` was 1130 nM.
In turn, `Cn1nccc1C(=O)NCCNCc1ccc(-c2ccc(-c3nc4cc(F)ccc4[nH]3)cc2)cc1` showed an XC50 of 297 nM.
The value for `COc1ccc(OC)c(CNCC(O)c2cc(C(F)(F)F)cc(C(F)(F)F)c2)c1` (centres undefined) was 443 nM.
Take `C=CCc1cc(Cc2cnc(N)nc2N)cc(CCC)c1OC`: the XC50 was found to be 1360 nM.
To `Cc1cc(N(C)C)nc(Nc2ccc(NC(=O)c3ccc(Br)o3)cc2)n1` belongs 1050 nM; to `c1ccc(-c2ccc(CNCCCNc3nc4ccccc4[nH]3)cc2)cc1`, 783 nM.
On to `CN(C)Cc1cccc(-c2ccc3ccnc(N)c3c2)c1`, for which the XC50 came out at 122 nM.
Turning to `CCN1CC=C(c2c[nH]c3ccccc23)CC1`, the XC50 turned out to be 1030 nM.
For the compound `O=C(NCCCCCN1CCC(c2c[nH]c3ccccc23)CC1)c1ccc(-c2cccnc2)cc1`, the XC50 was 1030 nM.
To `COc1ccc2ncc(F)c(CCN3CC(O)C(CNCc4ccc5ccccc5c4)C3)c2n1` (centres undefined) belongs 501 nM.
The compound `Cc1ccc(O)cc1Nc1ccnc2cc(-c3ccc(CN4CCCCC4)o3)ccc12` had an XC50 of 166 nM.
The compound `CCOc1cccc(C(=O)Nc2nonc2-c2ccc(OC)c(OC)c2)c1` yielded an XC50 of 1020 nM.
The value for `Cc1cccc2nc(-c3ccc(-c4ccc(CNCCc5ccncc5)cc4)cc3)[nH]c12` was 208 nM.
The value for `Cn1cnc(CCNC(=O)c2cccc(-c3ccc(-c4nc5cc(F)ccc5[nH]4)cc3)c2)c1` was 941 nM; that for `CC(C)(C)c1ccccc1OCCCON1C(=N)N=C(N)NC1(C)C` was 3.2 nM; that for `CN(C)c1cccc(-c2cnc3ccc(NCc4cccc(Cl)c4)nn23)c1` was 700 nM.
Regarding `COc1ccc(CCNCc2cc3c(C(C)(C)C)nn(-c4ccc(Cl)cc4)c3[nH]c2=O)cc1OC`, the XC50 turned out to be 148 nM.
To `CCN(CCNC(=O)C1CCN(c2cc(-c3cccc(C)c3)ncn2)CC1)Cc1ccccc1` belongs 171 nM.
